As for `CCc1nn(-c2ccc(F)cc2)c2cc(C3=CCC(C(=O)O)CC3)ccc12` (centres unmarked) [Example 24, 4-(3-ethyl-1-(4-fluorophenyl)-1H-indazol-6-yl)-cyclohex-3-ene-carboxylic acid], the melting point (as a rule, the temperature, or range, at which the solid turns liquid) lay within 214 to 216 °C.
The result for `CCc1nn(-c2ccc(F)cc2)c2cc(Br)ccc12` [Example 20, 6-Bromo-3-ethyl-1-(4-fluorophenyl)-1H-indazole] reads 72 to 73 °C.

For the origin of these results see patent publication US6716978B2, “Therapeutically active compounds based on indazole bioisostere replacement of catechol in PDE4 inhibitors” (Pfizer Inc, priority 1997, dated 2004).
